In patent publication US20080152765A1, “Coated Granular Formulations” (priority 2005, published 2008):
Several values for one entry are separate records, joined by “and”; a condition that tells them apart may be missing. Equal values may be shown once. Values belong to the compound of their own block, whether it stands above or below them.

Experiments:
Format in all cases: physicochemical
[1] = Hygroscopicity and photosensitivity of starting material NADH, exposure to light, RH 75%, 20° C.; conditions: for weight (increase in weight relative to time zero): T = 0 2.00 g
Protocol: The hygroscopicity and photosensitivity of the starting material NADH (s.m.) was determined as increase in weight, relative to time zero, the relative content being given in p.a.: […]

[2] = Stability of the protected NADH product relative to the starting material, 5 days at 53° C.
[3] = Stability of the protected SAMe product relative to the starting material, 5 days at 53° C.
[4] = Hygroscopicity of starting material SAMe, exposure at 75% RH and 20° C.; conditions: for weight (increase in weight relative to time zero): T = 0 2.00 g
Protocol: The hygroscopicity of the starting material SAMe (s.m.) was determined as increase in weight, relative to the time zero, the relative content being given in p.a.: […]

[5] = Increase of hygroscopicity in % by weight, SAMe, 75% RH 40° C.
[6] = 1 day exposure to light, RH 75%, 20° C.
[7] = 2 days exposure to light, RH 75%, 20° C.
[8] = 3 days exposure to light, RH 75%, 20° C.
[9] = 4 days exposure to light, RH 75%, 20° C.
[10] = 5 days at 53° C., listed as s.m.

NAD+ impurity [1, 6]: 1.21%
NADH content [1, 6]: 97.9%
Water (KF) [1, 6]: 1.82%
weight (increase in weight relative to time zero) [1, 6]: 2.20 g
NAD+ impurity [1, 7]: 1.55%
NADH content [1, 7]: 97.3%
Water (KF) [1, 7]: 1.91%
weight (increase in weight relative to time zero) [1, 7]: 2.40 g
NAD+ impurity [1, 8]: 2.89%
NADH content [1, 8]: 96.0%
Water (KF) [1, 8]: 2.44%
weight (increase in weight relative to time zero) [1, 8]: 2.50 g
NAD+ impurity [1, 9]: 3.45%
NADH content [1, 9]: 95.5%
Water (KF) [1, 9]: 2.86%
weight (increase in weight relative to time zero) [1, 9]: 2.80 g
NAD+ impurity ([1]; T = 0): 0.55%
NADH content ([1]; T = 0): 98.4%
Water (KF) ([1]; T = 0): 1.2%
% NAD+ content ([2]; 5 days at 53° C.): 2.3%
% NADH content ([2]; 5 days at 53° C.): 98.4%
% water (KF) ([2]; 5 days at 53° C.): 1.5%
% NAD+ content ([2]; T = 0): 0.5%
% NADH content ([2]; T = 0): 100.1%
% water (KF) ([2]; T = 0): 1.3%
Compound: NC(=O)C1=CN([C@@H]2O[C@H](COP(=O)(O)OP(=O)(O)OC[C@H]3O[C@@H](n4cnc5c(N)ncnc54)[C@H](O)[C@@H]3O)[C@@H](O)[C@H]2O)C=CC1 [NADH]

% water (KF) ([3]; 5 days at 53° C.): 1.5%
% Ionic SAMe content [3, 10]: 48.5% and 47.3%
% MTA [3, 10]: 3.45% and 3.87%
% adenine + adenosine [3, 10]: 3.35% and 3.54%
% Ionic SAMe content ([3]; T = 0, listed as s.m): 52.4%
% MTA ([3]; T = 0, listed as s.m): 0.3%
% adenine + adenosine ([3]; T = 0, listed as s.m): 0.6%
% water (KF) ([3]; T = 0, listed as s.m): 1.6%
% Ionic SAMe content ([3]; T = 0, listed as s.m.): 52.1%
% MTA ([3]; T = 0, listed as s.m.): 0.6%
% adenine + adenosine ([3]; T = 0, listed as s.m.): 0.4%
% water (KF) ([3]; T = 0, listed as s.m.): 1.5%
hygroscopicity and stability, in words ([4]; 75% RH and 20° C., 4 days): high hygroscopicity and high instability
% MTA ([4]; 1 day at 75% RH and 20° C.): 1.5%
% adenine + adenosine ([4]; 1 day at 75% RH and 20° C.): 1.3%
% ionic SAMe ([4]; 1 day at 75% RH and 20° C.): 51.1%
% water (KF) ([4]; 1 day at 75% RH and 20° C.): 2.1%
weight (increase in weight relative to time zero) ([4]; 1 day at 75% RH and 20° C.): 2.40 g
% MTA ([4]; 2 days at 75% RH and 20° C.): 1.9%
% adenine + adenosine ([4]; 2 days at 75% RH and 20° C.): 2.4%
% ionic SAMe ([4]; 2 days at 75% RH and 20° C.): 50.3%
% water (KF) ([4]; 2 days at 75% RH and 20° C.): 2.9%
weight (increase in weight relative to time zero) ([4]; 2 days at 75% RH and 20° C.): 2.90 g
% MTA ([4]; 3 days at 75% RH and 20° C.): 2.4%
% adenine + adenosine ([4]; 3 days at 75% RH and 20° C.): 2.9%
% ionic SAMe ([4]; 3 days at 75% RH and 20° C.): 47.3%
% water (KF) ([4]; 3 days at 75% RH and 20° C.): 3.4%
weight (increase in weight relative to time zero) ([4]; 3 days at 75% RH and 20° C.): 3.50 g
% MTA ([4]; 4 days at 75% RH and 20° C.): 3.0%
% adenine + adenosine ([4]; 4 days at 75% RH and 20° C.): 3.2%
% ionic SAMe ([4]; 4 days at 75% RH and 20° C.): 45.1%
% water (KF) ([4]; 4 days at 75% RH and 20° C.): 3.8%
weight (increase in weight relative to time zero) ([4]; 4 days at 75% RH and 20° C.): 4.50 g
% MTA ([4]; T(0)): T(0) = 0.6%
% adenine + adenosine ([4]; T(0)): T(0) = 0.4%
% ionic SAMe ([4]; T(0)): T(0) = 52.1%
% water (KF) ([4]; T(0)): T(0) = 1.5%
Increase of hygroscopicity in % by weight ([5]; 1 day at 75% RH and 40° C.): 50%
Increase of hygroscopicity in % by weight ([5]; T = 0): 0.00 % by weight
Compound: C[S+](CC[C@H](N)C(=O)O)C[C@H]1O[C@@H](n2cnc3c(N)ncnc32)[C@H](O)[C@@H]1O (stereo partly shown) [SAMe, S-adenosylmethionine]
